In patent US20250339409A1, “USES OF PAN BET INHIBITORS” (VYNE THERAPEUTICS INC., priority 2021, published 2025):
Where “and” joins values, the source holds several entries; their conditions need not be identical. Equal entries are not always repeated. Marks after values point to notes of the source that are not given here.

Tested on: anti collagen antibodies induced arthritis (ACAIA)
Assay: Anti collagen antibodies induced arthritis (ACAIA) in mice, intra-articular treatment: paw thickness, arthritis clinical score, body weight;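 further: mouse arthritis induced by IV anti-collagen mAb on day 0 plus IP LPS on day 4, with body weight, caliper paw thickness and 0-4 paw score tracked against a day 0 baseline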

**Q.** Which results are given for `C[C@@H]1C[C@H]2[C@@H]3CCC4=CC(=O)C=C[C@]4(C)[C@@]3(F)[C@@H](O)C[C@]2(C)[C@@]1(O)C(=O)CO` [dexamethasone, Dexamethasone, reference compound]?
**A.** Clinical score of treated leg (Avg.) (1 mg/kg IA (Group 7), Baseline): 0.00 points; Paw thickness Avg. Delta untreated -treated (1 mg/kg IA (Group 7), Baseline): 0.00 mm; Percent change of weight per day (Av) (1 mg/kg IA (Group 7), Baseline): 100.00%; Percent change of weight per day (individual animal) (1 mg/kg IA (Group 7), Baseline): 100%; Δ clinical score untreated -treated, Avg. Delta (1 mg/kg IA (Group 7), Baseline): 0.00 points; Clinical score of treated leg (Avg.) (1 mg/kg IA (Group 7), Day 3): 0.00 points; Paw thickness Avg. Delta untreated -treated (1 mg/kg IA (Group 7), Day 3): −0.02 mm; Percent change of weight per day (Av) (1 mg/kg IA (Group 7), Day 3): 98.19%; Percent change of weight per day (individual animal) (1 mg/kg IA (Group 7), Day 3): 100% and 97.54% and 95.7% and 99.48%; Δ clinical score untreated -treated, Avg. Delta (1 mg/kg IA (Group 7), Day 3): 0.00 points; Clinical score of treated leg (Avg.) (1 mg/kg IA (Group 7), Day 4): 0.00 points; Paw thickness Avg. Delta untreated -treated (1 mg/kg IA (Group 7), Day 4): −0.06 mm; Percent change of weight per day (Av) (1 mg/kg IA (Group 7), Day 4): 95.21%; Percent change of weight per day (individual animal) (1 mg/kg IA (Group 7), Day 4): 97.91% and 96.55% and 93.01% and 93.23%; Δ clinical score untreated -treated, Avg. Delta (1 mg/kg IA (Group 7), Day 4): 0.00 points; Clinical score of treated leg (Avg.) (1 mg/kg IA (Group 7), Day 5): 0.00 points; Paw thickness Avg. Delta untreated -treated (1 mg/kg IA (Group 7), Day 5): −0.05 mm; Percent change of weight per day (Av) (1 mg/kg IA (Group 7), Day 5): 91.29%; Percent change of weight per day (individual animal) (1 mg/kg IA (Group 7), Day 5): 90.58% and 91.133% and 88.71% and 100%; Δ clinical score untreated -treated, Avg. Delta (1 mg/kg IA (Group 7), Day 5): 0.00 points; Clinical score of treated leg (Avg.) (1 mg/kg IA (Group 7), Day 6): 0.29 points; Paw thickness Avg. Delta untreated -treated (1 mg/kg IA (Group 7), Day 6): 0.05 mm; Paw thickness of treated leg (Avg.) (1 mg/kg IA (Group 7), Day 6): 2.24** mm; Paw thickness of untreated leg (Avg.) (1 mg/kg IA (Group 7), Day 6): 2.29 mm; Percent change of weight per day (Av) (1 mg/kg IA (Group 7), Day 6): 88.66%; Percent change of weight per day (individual animal) (1 mg/kg IA (Group 7), Day 6): 86.91% and 87.68% and 86.02% and 102.0833%; Δ clinical score untreated -treated, Avg. Delta (1 mg/kg IA (Group 7), Day 6): 0.29 points; Clinical score of treated leg (Avg.) (1 mg/kg IA (Group 7), Day 7): 0.86 points; Paw thickness Avg. Delta untreated -treated (1 mg/kg IA (Group 7), Day 7): −0.01 mm; Paw thickness of treated leg (Avg.) (1 mg/kg IA (Group 7), Day 7): 2.30** mm; Paw thickness of untreated leg (Avg.) (1 mg/kg IA (Group 7), Day 7): 2.30 mm; Percent change of weight per day (Av) (1 mg/kg IA (Group 7), Day 7): 88.04%; Percent change of weight per day (individual animal) (1 mg/kg IA (Group 7), Day 7): 89.01% and 83.25% and 86.02% and 104.1667%; Δ clinical score untreated -treated, Avg. Delta (1 mg/kg IA (Group 7), Day 7): 0.00 points; Clinical score of treated leg (Avg.) (1 mg/kg IA (Group 7), Day 8): 1.14 points; Paw thickness Avg. Delta untreated -treated (1 mg/kg IA (Group 7), Day 8): 0.14 mm; Paw thickness of treated leg (Avg.) (1 mg/kg IA (Group 7), Day 8): 2.44 mm; Paw thickness of untreated leg (Avg.) (1 mg/kg IA (Group 7), Day 8): 2.59 mm; Percent change of weight per day (Av) (1 mg/kg IA (Group 7), Day 8): 89.48%; Percent change of weight per day (individual animal) (1 mg/kg IA (Group 7), Day 8): 90.05% and 83.25% and 87.63% and 104.6875%; Δ clinical score untreated -treated, Avg. Delta (1 mg/kg IA (Group 7), Day 8): 0.57 points; Clinical score of treated leg (Avg.) (1 mg/kg IA (Group 7), Day 10): 1.14 points; Paw thickness Avg. Delta untreated -treated (1 mg/kg IA (Group 7), Day 10): 0.19 mm; Paw thickness of treated leg (Avg.) (1 mg/kg IA (Group 7), Day 10): 2.45 mm; Paw thickness of untreated leg (Avg.) (1 mg/kg IA (Group 7), Day 10): 2.64 mm; Percent change of weight per day (Av) (1 mg/kg IA (Group 7), Day 10): 92.65%; Percent change of weight per day (individual animal) (1 mg/kg IA (Group 7), Day 10): 91.1% and 92.61% and 87.63% and 104.1667%; Δ clinical score untreated -treated, Avg. Delta (1 mg/kg IA (Group 7), Day 10): 0.43 points; Clinical score of treated leg (Avg.) (1 mg/kg IA (Group 7), Day 12): 1.29 points; Paw thickness Avg. Delta untreated -treated (1 mg/kg IA (Group 7), Day 12): 0.24 mm; Paw thickness of treated leg (Avg.) (1 mg/kg IA (Group 7), Day 12): 2.50 mm; Paw thickness of untreated leg (Avg.) (1 mg/kg IA (Group 7), Day 12): 2.74 mm; Percent change of weight per day (Av) (1 mg/kg IA (Group 7), Day 12): 96.89%; Percent change of weight per day (individual animal) (1 mg/kg IA (Group 7), Day 12): 93.19% and 99.01% and 90.32% and 110.4167% and 94.55%; Δ clinical score untreated -treated, Avg. Delta (1 mg/kg IA (Group 7), Day 12): 0.43 points; Clinical score of treated leg (Avg.) (1 mg/kg IP (Group 6), Baseline): 0.00 points; Paw thickness Avg. Delta untreated -treated (1 mg/kg IP (Group 6), Baseline): 0.02 mm; Percent change of weight per day (Av) (1 mg/kg IP (Group 6), Baseline): 100.00%; Percent change of weight per day (individual animal) (1 mg/kg IP (Group 6), Baseline): 100%; Δ clinical score untreated -treated, Avg. Delta (1 mg/kg IP (Group 6), Baseline): 0.00 points; Clinical score of treated leg (Avg.) (1 mg/kg IP (Group 6), Day 3): 0.00 points; Paw thickness Avg. Delta untreated -treated (1 mg/kg IP (Group 6), Day 3): 0.00 mm; Percent change of weight per day (Av) (1 mg/kg IP (Group 6), Day 3): 95.60** percent; Percent change of weight per day (individual animal) (1 mg/kg IP (Group 6), Day 3): 94.97% and 94.09% and 95.07% and 96.31% and 96.24% and 96.41% and 96.1165%; Δ clinical score untreated -treated, Avg. Delta (1 mg/kg IP (Group 6), Day 3): 0.00 points; Clinical score of treated leg (Avg.) (1 mg/kg IP (Group 6), Day 4): 0.00 points; Paw thickness Avg. Delta untreated -treated (1 mg/kg IP (Group 6), Day 4): −0.01 mm; Percent change of weight per day (Av) (1 mg/kg IP (Group 6), Day 4): 96.59%; Percent change of weight per day (individual animal) (1 mg/kg IP (Group 6), Day 4): 96.48% and 95.5665% and 97.04% and 96.31% and 96.71% and 97.4359% and 96.6%; Δ clinical score untreated -treated, Avg. Delta (1 mg/kg IP (Group 6), Day 4): 0.00 points; Clinical score of treated leg (Avg.) (1 mg/kg IP (Group 6), Day 5): 0.00 points; Paw thickness Avg. Delta untreated -treated (1 mg/kg IP (Group 6), Day 5): 0.01 mm; Percent change of weight per day (Av) (1 mg/kg IP (Group 6), Day 5): 88.34%; Percent change of weight per day (individual animal) (1 mg/kg IP (Group 6), Day 5): 88.44% and 86.2069% and 91.63% and 86.18% and 86.85% and 89.74% and 89.32%; Δ clinical score untreated -treated, Avg. Delta (1 mg/kg IP (Group 6), Day 5): 0.00 points; Clinical score of treated leg (Avg.) (1 mg/kg IP (Group 6), Day 6): 0.00* points; Paw thickness Avg. Delta untreated -treated (1 mg/kg IP (Group 6), Day 6): −0.05 mm
